Values after ≈ are worked out from the molar mass of the structure shown. Values joined by “and” are separate entries in the source; they are usually repeats but may differ in a detail not shown here. Equal values may be shown once. Bounds are passed on as bounds.

One series deals with Rattus norvegicus. The settings on record: for LD50: acute, mortality.
The next series has as its system Apis mellifera. The settings on record: acute, mortality.
For the next series, the system named is Pontoscolex corethrurus. The settings on record: acute; mortality.
For the next series, the system named is Oncorhynchus mykiss. To be noted: acute; duration: 96 hours; mortality.
A further series relates to Colinus virginianus. The settings on record: acute; oral; mortality.
The test system of another series is Sus scrofa. To be noted: for LEL: subchronic, diet.
For another series, the system named is Homo sapiens. To be noted: clinical; for LEL: no effects.
The test system of a further series is Canidae. The settings on record: acute; injection; intravenous; Beagle; hematological.
[1] abbreviates: duration: 6 weeks, oral, M/F, Large White x Landrace, clinical chemistry.

Regarding `CSCCC(N)C(=O)[O-].O=S(=O)([O-])O.[Zn+2]` (stereo not given), the LEL with Gallus gallus (subchronic, duration: 35 days, M, Chicken, no effects) came out at 120 mg/kg-day.
As to `C[C@@H]1O[C@H](O[C@H]2[C@H](O[C@H]3[C@@H](OC[C@H]4O[C@@H](O[C@@H]([C@H](O)[C@@H](O)CO)[C@H](O)CO)[C@H](O)[C@@H](O)[C@@H]4O[C@@H]4O[C@H](CO[C@H]5OC[C@@H](O)[C@H](O)[C@H]5O)[C@@H](O)[C@H](O)[C@H]4O)OC[C@@H](O)[C@@H]3O)O[C@H](CO)[C@H](O)[C@@H]2O)[C@@H](O)[C@H](O)[C@@H]1O`, the LD50 is more than 5000 mg/kg-day with Rattus norvegicus (oral) and more than 100 µg/piece in the series on Apis mellifera (oral, unspecified).
With `CC(=O)OC(C)c1ccccc1` (racemic) [(+/-)-alpha-Methylbenzyl acetate], the LC50 with Pontoscolex corethrurus was 1480 mg/kg.
As a reminder, the NOAEL is the highest dose or exposure tested at which no adverse effect was seen. On to `CC12CCC(CC1)C(C)(C)O2` [1,8-Cineol], for which the NOAEL in the series with Mus musculus (short-term, duration: 28 days, oral, capsule, M/F, other) came out at 562 mg/kg-day.
With `O=C1CCSC1` [3(2H)-Thiophenone, dihydro-], in the series with Pontoscolex corethrurus, the LC50 is 305 mg/kg.
The compound `CC(C)=CCC/C(C)=C/CO` [(2E)-3,7-Dimethyl-2,6-octadien-1-ol] had an LD50 in the series on Rattus norvegicus (oral) of 3600 mg/kg-day. The compound also registered an LC50 in the series with Oncorhynchus mykiss of 11.6 µg/mL (≈ 75.2 µM).
With `CC1=CC(=O)CC(C)(C)[C@@]1(O)/C=C/C(C)=C\C(=O)O` [(+)-(S)-Abscisic acid], the values for the LD50 with Rattus norvegicus (oral) and with Colinus virginianus were more than 5000 mg/kg-day and more than 2250 mg/kg-day, respectively. This compound also returned an NOAEC in the series on Rattus norvegicus (reproduction developmental, no effects) not below 1360 mg/kg-day.
`O=S(=O)([O-])c1ccc(N=Nc2cc(S(=O)(=O)[O-])c3ccccc3c2O)c2ccccc12.[Na+].[Na+]` [Azorubine]: the NOAEL worked out at 400 mg/kg-day with Rattus norvegicus (chronic, M/F, body weight) and 375 mg/kg-day in the series on Mus musculus (chronic, hematological).
In the series with Sus scrofa (setting [1]), `C[N+](C)(C)CC(=O)O.[Cl-]` [Betaine hydrochloride] showed an LEL of 10000 mg/kg-day.
On to `C[N+](C)(C)CC(=O)[O-]` [Betaine], for which the LEL with Homo sapiens (duration: 3 months, oral) is 4000 mg/day; in the series on Homo sapiens (duration: 6 months, oral) it was 4000 mg/day; in the series with Sus scrofa (setting [1]) it was 10000 mg/kg-day.
Take `C=C1CC[C@H](O)C/C1=C/C=C1\CCC[C@]2(C)[C@@H]([C@H](C)CCCC(C)(C)O)CC[C@@H]12` [Calcifediol]: the LEL with Gallus gallus (subchronic, duration: 35 days, oral, diet, M/F, no effects) turned out to be 0.07 mg/kg-day; with Sus scrofa (duration: 42 days, oral, Not specified, no effects), 0.5 mg/kg-day.
For the compound `CN/C(=N\[N+](=O)[O-])NCc1cnc(Cl)s1` [Clothianidin], the LD50 in the series on Apis mellifera (dermal) is 0.0275 µg/piece and 0.0258 µg/piece; with Apis mellifera (duration: 48 hours, dermal), 0.0275 µg/piece; with Apis mellifera (duration: 48 hours, oral, unspecified), 0.00379 µg/piece; in the series with Apis mellifera (oral, unspecified), 0.00379 µg/piece.
With `[Cu+2].[O-2]` [Cupric oxide], the no observed adverse effect level (NOAEL) in the series on Homo sapiens (duration: 12 weeks, oral, M, clinical chemistry) turned out to be 10 mg/day.
By LOAEL is commonly meant the lowest dose or exposure tested at which an adverse effect was seen. For the compound `CC(=O)OC[C@]12CCC(C)=C[C@H]1O[C@@H]1[C@H](O)[C@@H](OC(C)=O)[C@@]2(C)[C@]12CO2` [Diacetoxyscirpenol], the LOAEL in the series on Canidae is 0.031 mg/kg-day; in the series on Gallus gallus (subchronic, duration: 35 days, M, Chicken, histopathology: neoplastic) it was 0.01 mg/kg-day; with Sus scrofa (short-term, oral, gavage, Not specified, histopathology: neoplastic), 0.08 mg/kg-day. Also, the NOAEL in the series on Homo sapiens (injection, intravenous, hematological) came out at 0.065 mg/kg-day; in the series on Homo sapiens (injection, intravenous, other) it was 0.032 mg/kg-day.
As to `[Cl-].[Cu+2].[Cu+2].[OH-].[OH-].[OH-]` [Dicopper chloride trihydroxide], the LEL with Gallus gallus (chronic, duration: 16 weeks, oral, diet, no effects) is 390 mg/kg-day; in the series on Gallus gallus (short-term, duration: 21 days, oral, diet, M/F, food consumption), 600 mg/kg-day; with Gallus gallus (short-term, duration: 21 days, oral, diet, clinical chemistry) it was 450 mg/kg-day and 300 mg/kg-day.
In the case of `CCCCCCCC/C=C\CCCCCCCCCCCC(=O)O` [Erucic acid], the NOAEL was determined as 700 mg/kg-day in the series on Rattus norvegicus (short-term, duration: 7 days, oral, diet, M, Sprague-Dawley, histopathology: nonneoplastic) and 700 mg/kg-day in the series with Sus scrofa (short-term, duration: 14 days, M/F, Not specified, histopathology: nonneoplastic). Moreover, the LOAEL with Gallus gallus (chronic, histopathology: nonneoplastic) was 20 mg/kg-day.
